{
  "source": "paper PMC7823449",
  "about": "(Antioxidants, 2020)",
  "key": {"[1]": {"assay": "Oxygen Radical Absorbance Capacity (ORAC) assay", "format": "biochemical", "conditions": "samples 100 μg/mL properly diluted, AAPH 100 mM, fluorescein 10 nM, 37 °C, pH 7.0; values only in Figure 7", "method": "The ORAC assay determined the fluorescence decrease of fluorescein (10 nM) after its oxidation in the presence of AAPH and the investigated samples (100 μg/mL) properly diluted, as previously reported [46, 47]. The assays were carried out at 37 °C, pH 7.0 recording fluorescence through a Wallac Victor 1420 Multilabel Counters fluorimeter (PerkinElmer, Waltham, MA, USA) (excitation λ = 540 nm, emission λ = 570 nm). Trolox (12.5 μM) and phosphate buffer were used as control standard and blank, respectively. The area under the quenching curve of fluorescein was used to calculate ORAC value of the investigated compounds using Origin®7 (OriginLab Corporation, Northampton, USA). ORAC Units, expressed as trolox micromole per microgram of sample (μmol/μg), were obtained according to Equation (2): ORAC value (μmol/μg) = K(S sample − S blank)/(S Trolox − S blank) (2) where K is the sample dilution factor, S the area under the fluorescence decay curve of sample, trolox or blank. Each experiment was performed in triplicate and data were expressed as mean ± SD"}, "[2]": {"biological_target": "T1, bovine serum albumin (BSA) (Bos taurus, UniProt P02769)", "T1 construct": "purchased Sigma-Aldrich S.r.l; (Milan, Italy)", "T1 sequence (P02769 25-607)": "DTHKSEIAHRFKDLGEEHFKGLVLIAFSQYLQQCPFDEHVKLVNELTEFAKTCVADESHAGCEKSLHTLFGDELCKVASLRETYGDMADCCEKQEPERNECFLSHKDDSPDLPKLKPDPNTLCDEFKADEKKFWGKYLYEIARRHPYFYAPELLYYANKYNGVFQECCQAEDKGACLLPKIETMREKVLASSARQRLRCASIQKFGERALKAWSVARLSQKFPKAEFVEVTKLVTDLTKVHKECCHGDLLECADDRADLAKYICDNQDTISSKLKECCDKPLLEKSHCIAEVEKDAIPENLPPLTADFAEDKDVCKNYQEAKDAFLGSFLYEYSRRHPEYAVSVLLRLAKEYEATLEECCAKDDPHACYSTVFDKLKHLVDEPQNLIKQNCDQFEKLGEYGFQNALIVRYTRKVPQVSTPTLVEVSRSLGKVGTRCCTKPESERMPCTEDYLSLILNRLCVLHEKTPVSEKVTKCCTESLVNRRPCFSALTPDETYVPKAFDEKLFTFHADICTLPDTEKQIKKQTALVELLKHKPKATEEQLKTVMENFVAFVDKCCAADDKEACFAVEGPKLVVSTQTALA", "assay": "Anti-glycation activity, AGEs formation through Maillard reaction (BSA + D-fructose)", "format": "biochemical", "conditions": "samples 400 μg/mL, BSA 10 mg/mL + D-fructose 0.5 M, pH 7.4, 37 °C, 7 days; values only in Figure 8", "protocol": "Protein model bovine serum albumin (BSA) (10 mg/mL) incubated with D-fructose (0.5 M) in phosphate buffer 50 mM, pH 7.4 and NaN3 0.02% was used as positive control. BSA alone was the negative control while aminoguanidine (AMG) (400 μg/mL) was used as a reference. Final glycated BSA solutions (300 μL), alone and with samples (400 μg/mL), were incubated at 37 °C in 96-well microtiter closed with their silicon lids for 7 days. The inhibition of fluorescence was determined using a Wallac Victor 1420 Multilabel Counters fluorimeter (PerkinElmer, Waltham, MA, USA) (λexc 370 nm; λem 440 nm). Relative fluorescence units (RFU) were recorded and the percentage of AGEs formation inhibition was calculated as follows (Equation (3)): % of inhibition = {1 − (RFU sample/RFU Positive control)} × 100 (3)\nEach experiment was performed in triplicate and data were expressed as mean ± SD Statistical analysis of the results was performed using Student’s t-test (p < 0.05)."}, "[3]": {"assay": "Chemical stability (chemical hydrolysis) at different pH and temperature, HPLC of residual RSVTR", "format": "physicochemical", "conditions": "dark", "protocol": "The chemical hydrolysis of RSVTR was studied at pH 2.0 (0.2 N HCI), 6.8 and 7.2 (phosphate buffer solutions). All solutions containing the same amount of RSVTR (1.18 µM) were kept in the dark at a constant temperature of 37 °C, 22 °C, and 5 °C. At appropriate time intervals, chosen to obtain enough data to pinpoint the stability profile (0, 2, 4, 8, 24, 48, 72, 96, 168, 696 h at pH 7.2; 0, 2, 4, 8, 24, 48, 72, 96, 192, 528, 768 h at pH 6.8; 0, 2, 4, 8, 24, 48, 72, 96, 528 h at pH 2.0), samples were withdrawn and analyzed immediately by HPLC for the residual RSVTR.\nPseudo-first-order rate constants were determined from the slope of the linear portion of the graph obtained, plotting the logarithm of the residual amount of RSVTR against time. RSVTR half-life (t1/2) was calculated according to Equation (1): t1/2 = […] (1) where k is the pseudo-first-order rate constant.\nRSVTR was analyzed using an isocratic binary mobile phase consisting of 5% of acetonitrile and 95% of triethylamine 0.3% (v/v) in water (pH adjusted to 3.0 with trifluoroacetic acid). The flow rate was set at 1.0 mL/min and the column was maintained at 24 °C throughout the analysis. Chromatograms were acquired at 290 nm after analyzing RSVTR UV spectra in the range 200–400 nm and the retention time of RSVTR was approximately 5.40 min. The analytical method was validated according to ICH guidelines."}},
  "data": [
    {"smiles": "Cc1c(C)c2c(c(C)c1O)CCC(C)(C(=O)Oc1ccc(/C=C/c3cc(OC(=O)C4(C)CCc5c(C)c(O)c(C)c(C)c5O4)cc(OC(=O)C4(C)CCc5c(C)c(O)c(C)c(C)c5O4)c3)cc1)O2", "note": "(stereo not drawn) [RSVTR]", "values": [
      {"measurement": "melting point", "result": "113 to 116", "unit": "°C"},
      {"measurement": "Antioxidant activity (ORAC), result in words", "setting": "[1]", "result": "lower antioxidant capacity"},
      {"measurement": "Anti-glycation activity (inhibition of AGEs formation), result in words", "setting": "[2]", "result": "better anti-glycation agent than RSV"},
      {"measurement": "half-life at 1.18 µM", "setting": "[3]; 0.2 N HCl solution, pH 2, pH 2.0 (0.2 N HCl), 5 °C", "result": 19.2, "unit": "days"},
      {"measurement": "half-life at 1.18 µM", "setting": "[3]; 0.2 N HCl solution, pH 2, pH 2.0 (0.2 N HCl), 22 °C", "result": 8.25, "unit": "days"},
      {"measurement": "half-life at 1.18 µM", "setting": "[3]; 0.2 N HCl solution, pH 2, pH 2.0 (0.2 N HCl), 37 °C", "result": 5.54, "unit": "days"},
      {"measurement": "half-life at 1.18 µM", "setting": "[3]; phosphate buffer, pH 6.8, pH 6.8 phosphate buffer, 5 °C", "result": 48.1, "unit": "days"},
      {"measurement": "half-life at 1.18 µM", "setting": "[3]; phosphate buffer, pH 6.8, pH 6.8 phosphate buffer, 22 °C", "result": 36.1, "unit": "days"},
      {"measurement": "half-life at 1.18 µM", "setting": "[3]; phosphate buffer, pH 6.8, pH 6.8 phosphate buffer, 37 °C", "result": 28.9, "unit": "days"},
      {"measurement": "half-life at 1.18 µM", "setting": "[3]; phosphate buffer, pH 7.2, pH 7.2 phosphate buffer, 5 °C", "result": 72.2, "unit": "days"},
      {"measurement": "half-life at 1.18 µM", "setting": "[3]; phosphate buffer, pH 7.2, pH 7.2 phosphate buffer, 22 °C", "result": 28.9, "unit": "days"},
      {"measurement": "half-life at 1.18 µM", "setting": "[3]; phosphate buffer, pH 7.2, pH 7.2 phosphate buffer, 37 °C", "result": 12.5, "unit": "days"}
    ]}
  ]
}
